Experimental data as given in patent publication US4906618A, “Prophylactic and therapeutic agent against swine dysentery” (Fujisawa Pharmaceutical Co., Ltd., priority 1986, dated 1990).
Like-named read-outs stand apart in the source and are kept apart here.

Key:
Treponema hyodysenteriae = assay: In vitro activity (MIC) against Treponema hyodysenteriae, agar dilution; type: cell-based; settings: for MIC: Brachyspira hyodysenteriae, read-out: MIC (minimum inhibitory concentration); for MIC (minimum inhibitory concentration): 72 hours anaerobic, 37° C.
Description: The test organisms were grown anaerobically for 96 hours on Trypticase soy agar plate supplemented with 5% sheep blood. Appropriate amounts of physiological saline solution were poured into each agar plate to make a cell-suspension of test organism, which was finally adjusted at the cell density of 10^6 colony forming units (CFU)/ml. Freshly prepared Trypticase soy agar plates supplemented with 5% sheep blood which were containing serial two-fold dilutions of each of the compounds as mentioned below were inoculated with a loopful (about 5 μl) of the above-mentioned cell-suspension. The MIC (minimum inhibitory concentration) values were determined after 72 hours of anaerobical incubation at 37° C. in Gas Pak jars.

[1] = system: Treponema hyodysenteriae S5709; assay: Protective effect against experimental infection of Treponema hyodysenteriae in mice; type: in vivo, mice (ddy); settings: 5 mg/kg, oral, once a day on first and second day after challenge, one week after infection
Description: 5 week-old mice (ddy, .male.) were used in these experiments. Mice were orally infected with 1.8×10^7 cells of Treponema hyodysenteriae S5709 grown for 96 hours on Trypticase soy agar plate supplemented with 5% sheep blood. On the first and second day after challenge, test compounds were given by oral administration once a day. One week after infection, the efficacy of the antibiotics on mice suffering from dysentery was determined as follows. Cecum contents from infected mice were suspended in 2 ml of saline solution, diluted twenty times with Trypticase soy medium supplemented with 5% sheep blood and cultured for T. hyodysenteriae on agar plate of Trypticase soy medium supplemented with 5% sheep blood at 37° C. for 72 hours in Gas Pak jars. The numbers of T. hyodysenteriae colony appeared on the plates were counted. Mice that gave no colony formations of T. hyodysenteriae were regarded as cured mice.

[2] = system: Treponema hyodysenteriae ATCC31212; assay: Therapeutic effect on experimentally induced swine dysentery in piglets; type: in vivo, piglets (Landace×Large White crossbred); settings: solution in water; for (average) days of disappearance of fecal T. h: detection limit 10^2 CFU/g of feces
Description: Seven piglets, LW (Landace×Large White crossbred) male, were used. The initial body weight at the time of inoculation of infective materials ranged from 6.5 to 8.5 kg. Piglets were divided into 4 groups ([…] and 1 group of 1 head) and were maintained in stainless cages (90×90 cm) with raised plastic net floors at 28±2° C. Feed [Milk replacer for piglet] and water were supplied ad libitum except the duration of fasting. Infective materials used were prepared as follows. A total of 300 g of mucous haemorrhagic feces, large intestinal (from caecum through rectum) contents, and mucosa obtained from a clinically affected pig (3 days after onset of swine dysentery), which was previously inoculated into its caecum with pure culture of Treponema hyodysenteriae ATCC31212 (about 3×10^9 colony forming units/head) by surgical operation, were suspended, diluted finally 2.5 times with phosphate-bufferized saline and minced by biotron homogenizer (trademark, made by Biotrona Co., Ltd.).
For the purpose of infection, all piglets were inoculated individually with about 90 g of the infective materials after 22 hours' fasting.
Treatment were done once a day for 2 consecutive days from the 5th day post inoculation.

[3] = Growth promoting effect in pigs; type: in vivo, pigs (LWD strain); settings: for Efficiency of feed utilization: 6 weeks, control 2.19; for Average body weight gain at the 6th week after the feeding: control 18.0; for Average final body weight at the 6th week after the starting of the feeding: control 28.0
Description: Five sets of 24 pigs (33 days-old, LWD strain) were used. Each 24 pigs were divided into 4 groups, i.e. 3 treatment groups and a control group. Each group consisted of 3 barrows and 3 female pigs. They were fed continuously with the feed described in Table 6.
The above basal ration I +

[4] = Growth promoting effect in male broiler chickens; type: in vivo, male broiler chickens (chunky); settings: for Average body weight gain at one week after the feeding: control 95.3; for Average final body weight at one week after the feeding: control 183.8; for Efficiency of feed utilization: one week, control 2.02
Description: 8-Days-old male broiler chickens (chunky) were divided into 3 groups i.e. 2 treatment groups and a control group, each group of which consisted of 10 chicks. They were fed continuously with the feed described in Table 8.
The above Basal ration II +

[5] = Acute toxicity test in mice; type: in vivo, ddy mice; settings: single intravenous dose 20 mg (1 g/kg), five mice, 10 days of observation
Description: Further, in the acute toxicity test, each of five ddy mice (5-week old, male, 20 g in weight), was intraveneously given a single dose of WS-1627A, B, C or D 20 mg (lg/kg) and all survived.

[6] = background statement; cited from earlier work
[7] = intramuscularly 10 mg/kg body weight × 2 day, 1 pig
[8] = orally 2.5 mg/kg body weight × 2 day, 2 pigs
[9] = Treatment group I, 10 ppm in feed
[10] = Treatment group II, 20 ppm in feed
[11] = Treatment group III, 40 ppm in feed
[12] = Treatment group II, 50 ppm in feed

In the case of CC(=O)C1OC(Oc2ccc(C=C(C)C(=O)NC3C(O)C(O)C4OCOC4C3O)cc2O)C(O)C1O (stereo not shown) [WS-1627B, hygromycin], the MIC (Treponema hyodysenteriae; 72 h) was under 0.8 µg/mL, the MIC (Treponema hyodysenteriae; ATCC31212, 72 h) was under 0.8 µg/mL and the “antimicrobial activities against Treponema hyodysenteriae” value (Treponema hyodysenteriae; statement in words) was “strong antimicrobial activities”. The “MIC (minimum inhibitory concentration)” value (Treponema hyodysenteriae; strain S5709) was under 0.8 µg/mL, the “MIC (minimum inhibitory concentration)” value (Treponema hyodysenteriae; strain TH81013) was under 0.8 µg/mL and the cured/treated ([1]; listed as WS1627B) was 7/7. The “(average) days of recovery to normal stool” value [2, 7] was 1 days, the “(average) days of disappearance of fecal T. h” value [2, 7] was 1 days and the “(average) days of recovery to normal stool” value [2, 8] was 2 days. For the same compound, the “(average) days of disappearance of fecal T. h” value [2, 8] was 2 days, the “Efficiency of feed utilization” value [3, 9] was 2.05 and the “Average body weight gain at the 6th week after the feeding” value (“Average body weight gain at the 6th week” below) [3, 9] was 19.6 kg. The “Average final body weight at the 6th week after the starting of the feeding” value (“Average final body weight … of the feeding” below) [3, 9] was 29.6 kg, the “Efficiency of feed utilization” value [3, 10] was 2.11 and the “Average body weight gain at the 6th week” value [3, 10] was 19.2 kg. For the same compound, the “Average final body weight … of the feeding” value [3, 10] was 29.2 kg, the “Efficiency of feed utilization” value [3, 11] was 2.09 and the “Average body weight gain at the 6th week” value [3, 11] was 18.9 kg. The “Average final body weight … of the feeding” value [3, 11] was 28.9 kg, the “Average body weight gain at one week after the feeding” value [4, 9] was 116.5 g and the “Average final body weight at one week after the feeding” value [4, 9] was 204.5 g. For the same compound, the “Efficiency of feed utilization” value [4, 9] was 2.00, the “Average body weight gain at one week after the feeding” value [4, 12] was 121 g and the “Average final body weight at one week after the feeding” value [4, 12] was 209 g. The “Efficiency of feed utilization” value [4, 12] was 1.67, the survival [5] was “all survived” and the toxic symptom [5] was “no toxic symptom was observed”. For the same compound, the Solubility (Solubility; acetone) was “Insoluble”, the Solubility (Solubility; chloroform) was “Insoluble” and the Solubility (Solubility; ethyl acetate) was “Insoluble”. For the same compound, the Solubility (Solubility; methanol) was “Soluble” and the Solubility (Solubility; water) was “Soluble”.

In the case of CC(=O)C1OC(Oc2ccc(C=C(C)C(=O)NC3C(O)C(O)C4OCOC4C3O)cc2O)C(O)C1O (stereo not drawn) [WS-1627D, epi-hygromycin], the cured/treated ([1]; listed as WS1627D) was 4/7.

For COC(=O)N/N=C/c1c[n+]([O-])c2ccccc2[n+]1[O-] [carbadox], the mutagenicity [6] is given as “strong mutagenic substance”.
